Laboratory results published in ChEMBL document CHEMBL2434869, “Pyrazole containing natural products: synthetic preview and biological significance” (Eur J Med Chem, 2013).

What was measured:
[1] = Cytotoxicity against mouse EAC assessed as growth inhibition; type: functional, Ehrlich
[2] = Toxicity in white mouse; type: organism-based; conditions: in vivo
[3] = Cytotoxicity against mouse mammary carcinoma 755 cells assessed as growth inhibition; type: functional
[4] = Cytotoxicity against rat Walker 256 cells assessed as growth inhibition; type: functional
X5563 = experiment: Cytotoxicity against mouse X5563 cells assessed as growth inhibition; type: functional
[5] = Cytotoxicity against mouse Gardner lymphosarcoma cells assessed as growth inhibition; type: functional

Row | Structure (SMILES) | growth inhibition (GI) [1] [%] | MTD [2] [mg/kg] | growth inhibition (GI) [3] [%] | growth inhibition (GI) [4] [%] | growth inhibition (GI) (X5563) [%] | growth inhibition (GI) [5] [%]
1 | COc1[nH]nc2nncnc12 | 83 | 50 |  |  |  | 
2 | NC(=O)c1ncn([C@@H]2O[C@H](CO)[C@@H](O)[C@H]2O)n1 [RIBAVIRIN] |  |  | >50 | >50 | >50 | >50
3 | COc1nnc2nn(C)cnc1-2 | 40 | 0.2 |  |  |  | 
4 | COc1nnc2n(C)ncnc1-2 [PSEUDOIODININE] | 64 | 20 |  |  |  | 
